Experimental data published in paper PMC4468002 (Bioorganic & medicinal chemistry, 2015).

Tests used:
human D3R = human D3R (Homo sapiens, UniProt P35462); test: Radioligand competition binding, [3H]N-methylspiperone, D3R; conditions: ratio of Ki values; Table 2
[1] = Phase I metabolic stability in mouse liver microsomes with NADPH; type: in vitro ADME; conditions: 60 min incubation, 1 μM compound

human D3R, sequence (P35462 whole entry): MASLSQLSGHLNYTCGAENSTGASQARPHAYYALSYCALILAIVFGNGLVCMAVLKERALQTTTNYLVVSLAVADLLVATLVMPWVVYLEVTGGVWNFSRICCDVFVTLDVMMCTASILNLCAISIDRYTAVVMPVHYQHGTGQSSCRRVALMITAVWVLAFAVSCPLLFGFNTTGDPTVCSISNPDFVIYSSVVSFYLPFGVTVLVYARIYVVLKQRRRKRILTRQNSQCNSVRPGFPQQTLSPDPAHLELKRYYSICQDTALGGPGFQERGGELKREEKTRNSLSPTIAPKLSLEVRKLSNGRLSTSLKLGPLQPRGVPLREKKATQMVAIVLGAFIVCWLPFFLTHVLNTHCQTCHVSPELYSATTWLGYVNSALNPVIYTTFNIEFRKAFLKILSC

Row | Receptor selectivity D2/D3 (human D3R) | percent original compound remaining [1] [%] | Receptor selectivity D4/D3 (human D3R) | Substance
1 | 14 | 26 | – | 1-(4-(2,3-Dichlorophenyl)piperazin-1-yl)-4-(4-(quinolin-3-yl)-1H-1,2,3-triazol-1-yl)butan-2-ol [17b]
2 | 6.3 | – | 40 | 5-(4-(4-(4-(2-Methoxyphenyl)piperazin-1-yl)butyl)-1H-1,2,3-triazol-1-yl)quinoline [9d]
